Laboratory results published in the NIST ThermoML archive (doi:10.1021/je700271n).
± gives the expanded uncertainty stated by the source.

Conditions: Liquid

Row | vapor or sublimation pressure (273.15 K) [kPa] | vapor or sublimation pressure (283.15 K) [kPa] | vapor or sublimation pressure (293.15 K) [kPa] | vapor or sublimation pressure (303.15 K) [kPa] | vapor or sublimation pressure (313.15 K) [kPa] | vapor or sublimation pressure (323.15 K) [kPa] | Compound
1 | 195 ± 3 | 280 ± 4 | 389 ± 5 | 527 ± 7 | 704 ± 9 | 920 ± 11 | FC(C(F)(F)F)C(F)(F)F [1,1,1,2,3,3,3-heptafluoropropane]
2 | 476 ± 6 | 632 ± 8 | 833 ± 10 | 1079 ± 13 | 1366 ± 17 | 1709 ± 21 | CCC [propane]
